How the values were obtained:
IRAK4 [1] = molecular target: T1, IRAK4 (Homo sapiens, UniProt Q9NWZ3); assay: IRAK4 Degradation Assay (Karpas299, HTRF/TR-FRET); format: cell-based; settings: Karpas-299 cells; for Dmax: maximum percentage of degradation
T1 construct: endogenous in cells; host or cells: Karpas299
T1 sequence (Q9NWZ3 1-460): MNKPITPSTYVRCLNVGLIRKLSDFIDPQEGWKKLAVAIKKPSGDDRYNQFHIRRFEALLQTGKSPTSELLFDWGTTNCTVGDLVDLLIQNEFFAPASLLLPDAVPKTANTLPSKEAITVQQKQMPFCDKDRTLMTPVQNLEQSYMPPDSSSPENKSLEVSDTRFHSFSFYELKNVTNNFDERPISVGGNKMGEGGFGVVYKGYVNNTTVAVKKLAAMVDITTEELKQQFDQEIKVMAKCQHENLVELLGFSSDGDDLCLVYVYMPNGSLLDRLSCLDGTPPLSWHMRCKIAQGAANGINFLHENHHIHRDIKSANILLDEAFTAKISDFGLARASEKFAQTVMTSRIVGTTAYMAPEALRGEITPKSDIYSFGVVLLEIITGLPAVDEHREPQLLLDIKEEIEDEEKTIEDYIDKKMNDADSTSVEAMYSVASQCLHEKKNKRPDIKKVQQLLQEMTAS
Outline: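 Compound potency as DC50 (IC50) came from four-parameter fits of percent IRAK4 degradation. IRAK4 was measured by HTRF (665/620 nm) in lysates of Karpas299 cells seeded at 0.2 million per well. Cells had been treated with compound dilutions for 5 or 24 h.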

IRAK4 [2] = molecular target: T1, IRAK4; assay: IRAK4 Degradation Assay with Human Serum (Karpas299, HTRF/TR-FRET); format: cell-based; settings: Karpas-299 in human serum, 24 hrs treatment; for DC50: read-out: IRAK4 degradtion with human serum assay DC50; for Dmax: read-out: IRAK4 degradtion with human serum assay Dmax (%)
Outline: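 Remaining IRAK4 measured by TR-FRET immunoassay on lysates of Karpas299 cells exposed 24 h to compound dilution series in human serum AB. DC50 derived from a Hill-slope fit of % degradation versus concentration.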

[3] = 24 h treatment, read-out: IRAK4 in Karpas-299 (24 h) Dmax (%)
[4] = 24 h treatment, read-out: IRAK4 in Karpas-299 (24 h) DC50

Row | SMILES | Dmax (IRAK4 [1]; [3]) [%] | DC50 (IRAK4 [1]; [4]) [nM] | DC50 (IRAK4 [2]) [nM] | Dmax (IRAK4 [2]) [%] | Dmax (IRAK4 [1]; 5 h treatment, read-out: IRAK4 in Karpas-299 (5 h) Dmax (%)) [%] | DC50 (IRAK4 [1]; 5 h treatment, read-out: IRAK4 in Karpas-299 (5 h) DC50) [nM]
1 | COC[C@@H]1CN(C2CCN(c3cc(F)c([C@H]4CCC(=O)NC4=O)c(F)c3)CC2)CCN1[C@H]1CC[C@H](n2cc3cc(NC(=O)c4ccc5cc(C#N)cnn45)c(C(C)(C)O)cc3n2)CC1 [Example 328, 3-cyano-N-(2-((1S,4r)-4-((S)-4-(1-(4-((R)-2,6-dioxopiperidin-3-yl)-3,5-difluorophenyl)piperidin-4-yl)-2-(methoxymethyl)piperazin-1-yl)cyclohexyl)-6-(2-hydroxypropan-2-yl)-2H-indazol-5-yl)pyrrolo[1,2-b]pyridazine-7-carboxamide] | 98 | 0.8 | 19 | 101 |  | 
2 | CC(C)(O)c1cc2nn([C@H]3CC[C@H](N4CCN(C(=O)[C@@H]5CCN(c6cc(F)c(N7CCC(=O)NC7=O)c(F)c6)C5)CC4)CC3)cc2cc1NC(=O)c1ccc2cc(C#N)cnn12 [Example 106, 3-cyano-N-(2-((1R,4r)-4-(4-((R)-1-(4-(2,4-dioxotetrahydropyrimidin-1(2H)-yl)-3,5-difluorophenyl)pyrrolidine-3-carbonyl)piperazin-1-yl)cyclohexyl)-6-(2-hydroxypropan-2-yl)-2H-indazol-5-yl)pyrrolo[1,2-b]pyridazine-7-carboxamide] | 97 | 2.4 | 57 | 97 |  | 
3 | Cc1nc(C2CCC(=O)NC2=O)ccc1N1CCC(N2CCC3(CCC(n4cc5cc(NC(=O)c6ccc7cc(C#N)cnn67)c(C(C)(C)O)cc5n4)CC3)CC2)CC1 (centres unmarked) [Example 427, 3-cyano-N-(2-(3-(1-(6-(2,6-dioxopiperidin-3-yl)-2-methylpyridin-3-yl)piperidin-4-yl)-3-azaspiro[5.5]undecan-9-yl)-6-(2-hydroxypropan-2-yl)-2H-indazol-5-yl)pyrrolo[1,2-b]pyridazine-7-carboxamide] | 96 | 2.9 | 8.4 | 94 |  | 
4 | Cc1cc(C2CCC(=O)NC2=O)c(F)cc1[C@H]1C[C@H](N2CCN([C@H]3CC[C@H](n4cc5cc(NC(=O)c6ccc7cc(C#N)cnn67)c(C(C)(C)O)cc5n4)CC3)CC2)C1 (stereo partly drawn) [Example 297, 3-cyano-N-(2-((1R,4r)-4-(4-((1r,3R)-3-(4-(2,6-dioxopiperidin-3-yl)-5-fluoro-2-methylphenyl)cyclobutyl)piperazin-1-yl)cyclohexyl)-6-(2-hydroxypropan-2-yl)-2H-indazol-5-yl)pyrrolo[1,2-b]pyridazine-7-carboxamide] | 97 | 1.4 | 6 | 99 | 96 | 3.4
5 | CC(C)(O)c1cc2nn([C@H]3CC[C@H](N4C[C@@H]5CN(CC6CN(c7cc(F)c(C8CCC(=O)NC8=O)c(F)c7)C6)C[C@H]5C4)CC3)cc2cc1NC(=O)c1ccc2cc(C#N)cnn12 (stereo partly drawn) [Example 359, 3-cyano-N-(2-((1S,4r)-4-((3aS,6aS)-5-((1-(4-((R)-2,6-dioxopiperidin-3-yl)-3,5-difluorophenyl)azetidin-3-yl)methyl)hexahydropyrrolo[3,4-c]pyrrol-2(1H)-yl)cyclohexyl)-6-(2-hydroxypropan-2-yl)-2H-indazol-5-yl)pyrrolo[1,2-b]pyridazine-7-carboxamide] | 97 | 2.4 | 4.2 | 103 |  | 
6 | CC(C)(O)c1cc2nn([C@H]3CC[C@H](C4CCN(CC5CN(c6cc(F)c([C@H]7CCC(=O)NC7=O)c(F)c6)C5)CC4)CC3)cc2cc1NC(=O)c1ccc2cc(C#N)cnn12 [Example 390, 3-cyano-N-(2-((1r,4r)-4-(1-((1-(4-((R)-2,6-dioxopiperidin-3-yl)-3,5-difluorophenyl)azetidin-3-yl)methyl)piperidin-4-yl)cyclohexyl)-6-(2-hydroxypropan-2-yl)-2H-indazol-5-yl)pyrrolo[1,2-b]pyridazine-7-carboxamide] | 99 | 2 | 24 | 99 |  | 
